Earlier results, collected in patent US6900317B2, “Salts of the CGRP antagonist BIBN4096 and inhalable powdered medicaments containing them” (Boehringer Ingelheim Pharma GmbH & Co. KG, priority 2002, dated 2005).

Conditions: conventional preparations

For `NCCCC[C@H](NC(=O)[C@@H](Cc1cc(Br)c(O)c(Br)c1)NC(=O)N1CCC(N2Cc3ccccc3NC2=O)CC1)C(=O)N1CCN(c2ccncc2)CC1` [BIBN4096, 1-[N^2-[3,5-dibromo-N-[[4-(3,4-dihydro-2(1H)-oxoquinazolin-3-yl)-1-piperidinyl]carbonyl]-D-tyrosyl]-L-lysyl]-4-(4-pyridinyl)-piperazine], the “bioavailability by oral route” value is given as “only limited bioavailability”.
